Assay results reported in patent US20090306053A1, “Highly selective rho-kinase inhibitor” (priority 2005, published 2009).

How the values were obtained:
Assay type in all cases: biochemical
[1] = target: T1, Recombinant human AuroraA (Homo sapiens, UniProt O14965); assay: AuroraA kinase assay (Kinase-Glo ATP consumption); parameters: key to Realative Inhibitory Activity AuroraA: ratio relative to ROCKII-inhibiting activity defined as 1.0 (from IC50s); conditions: for IC50: 1 μM ATP, read-out: Kinase Inhibiting Activity (IC50) AuroraA; for Realative Inhibitory Activity AuroraA: relative ratio to ROCKII (=1.0), based on IC50 values
T1 construct: purchased Upstate
T1 sequence (O14965 1-403): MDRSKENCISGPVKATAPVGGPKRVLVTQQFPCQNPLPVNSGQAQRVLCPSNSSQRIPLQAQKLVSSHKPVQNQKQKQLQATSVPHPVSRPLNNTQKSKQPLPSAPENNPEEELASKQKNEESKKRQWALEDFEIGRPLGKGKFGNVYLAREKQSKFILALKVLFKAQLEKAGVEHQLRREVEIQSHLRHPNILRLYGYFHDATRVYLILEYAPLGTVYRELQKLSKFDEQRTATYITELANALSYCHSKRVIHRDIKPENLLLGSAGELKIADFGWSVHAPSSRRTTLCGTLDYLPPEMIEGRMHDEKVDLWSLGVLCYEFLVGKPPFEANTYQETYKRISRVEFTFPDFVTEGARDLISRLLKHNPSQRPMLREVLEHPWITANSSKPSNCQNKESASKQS
Experimental: Recombinant human AuroraA (Upstate) was used to evaluate its activity to phosphorylate a substrate peptide (LRRASLG, Promega) was evaluated.
(§1) In a system of the total volume of 50 μL, the reaction of the above-mentioned enzyme (40 ng) was carried out at room temperature for 80 minutes in the presence of 40 mM of MOPS-NaOH (pH 7.5), 20 mM of magnesium chloride, 200 μM of the above peptide, and 1 μM of ATP. After the kinase reaction, the luminescence intensity corresponding to the amount of ATP in the reaction system was measured using a luciferase reagent (Kinase-Glo Luminescent Kinase Assay kit, Promega) with a chemiluminescence measurement apparatus (MicroLumat, Berthold Technologies). The amount of ATP consumed by the phosphorylation reaction was calculated by comparison with the luminescence intensity in the system when the kinase reaction was not carried out.
(§2) With this system, the kinase reaction was carried out in the presence of a compound at various concentrations, and the IC50 value of the compound was determined based on the resulting compound concentration-response curve for ATP consumption.
(§3) The ROCKII-inhibiting activity of a compound to be tested was defined as 1.0, and the inhibitory activities of the compound against kinases (PKA, PKG, CaMKII, and AuroraA) other than ROCKII were calculated as relative ratios to the ROCKII-inhibiting activity, based on the IC50 values calculated using the above-described evaluation system.

Purified rat CaMKII [2] = target: T2, Purified rat CaMKII (Rattus norvegicus, UniProt P11275); assay: CaMKII kinase assay (Kinase-Glo ATP consumption); conditions: 1 μM ATP; read-out: Kinase Inhibiting Activity (IC50) CaMKII
T2 construct: purchased Upstate
Experimental: (§4) Purified rat CaMKII (containing CaMKIIα and small amounts of β, γ, and δ isoforms, Upstate) was used to evaluate its activity to phosphorylate a substrate peptide (KKALRRQETVDAL, Upstate).
as §1, with “(33” for “(40”, “60” for “80”, “50” for “40”, “Tris-HCl (pH7.5), 10” for “MOPS-NaOH (pH 7.5), 20”, “2 mM of calcium chloride, 0.04 mg/mL of BSA, 16 μg/mL of purified bovine brain calmodulin (Sigma), 0.5 mM of DTT, 50 µM” for “200 μM”
as §2, §3

Purified rat CaMKII [3] = assay: CaMKII kinase assay (Kinase-Glo ATP consumption); conditions: relative ratio to ROCKII (=1.0), based on IC50 values
Experimental: as §4
as §1, with “(33” for “(40”, “60” for “80”, “50” for “40”, “Tris-HCl (pH7.5), 10” for “MOPS-NaOH (pH 7.5), 20”, “2 mM of calcium chloride, 0.04 mg/mL of BSA, 16 μg/mL of purified bovine brain calmodulin (Sigma), 0.5 mM of DTT, 50 µM” for “200 μM”
as §2, §3

Purified rat PKC = assay: PKC kinase assay (Kinase-Glo ATP consumption); conditions: 1 μM ATP; read-out: Kinase Inhibiting Activity (IC50) PKC
Experimental: Purified rat PKC (containing PKCα, β, and γ and small amounts of δ and ξ isoforms, Promega) was used to evaluate its activity to phosphorylate a substrate peptide (AAKIQASFRGHMARKK, Promega).
as §1, with “(5” for “(40”, “20” for “40”, “Tris-HCl” for “MOPS-NaOH”, “0.4 mM of calcium chloride, 0.1 mg/mL of BSA, 0.25 mM of EGTA, 0.5 mg/mL of phosphatidylserine (Sigma), 0.05 mg/mL of 1,2-dioctanoyl-sn-glycerol (Sigma), 10” for “200”
as §2

[4] = target: T3, Purified bovine PKA (catalyst subunit) (Bos taurus, UniProt P00517); assay: PKA kinase assay (Kinase-Glo ATP consumption); conditions: for IC50: 1 μM ATP, read-out: Kinase Inhibiting Activity (IC50) PKA; for Realative Inhibitory Activity PKA: relative ratio to ROCKII (=1.0), based on IC50 values
T3 construct: Purified bovine PKA (catalyst subunit, Promega); purchased Promega
Experimental: Purified bovine PKA (catalyst subunit, Promega) was used to evaluate its activity to phosphorylate a substrate peptide (LRRASLG, Promega).
as §1, with “(43” for “(40”, “20” for “80”, “Tris-HCl” for “MOPS-NaOH”, “1 mg/mL of BSA, 5” for “200”
as §2, §3

ROCKII (Rho-kinase) = ROCKII (Rho-kinase) (Homo sapiens, UniProt O75116); assay: Rho-kinase (ROCKII) assay according to Patent Document 1; parameters: key to Realative Inhibitory Activity ROCKII: relative ratio; ROCKII-inhibiting activity defined as 1.0; conditions: for Realative Inhibitory Activity ROCKII: ROCKII-inhibiting activity defined as 1.0 (reference); for IC50: read-out: Kinase Inhibiting Activity (IC50) ROCKII
Experimental: An Rho-kinase assay was carried out according to the method described in Patent Document 1, and the concentration of a compound for inhibiting Rho-kinase activity by 50% (hereinafter referred to as “IC50 value”) was calculated.
as §3

ROCKII (Rho-kinase), sequence (O75116 whole entry, species assumed): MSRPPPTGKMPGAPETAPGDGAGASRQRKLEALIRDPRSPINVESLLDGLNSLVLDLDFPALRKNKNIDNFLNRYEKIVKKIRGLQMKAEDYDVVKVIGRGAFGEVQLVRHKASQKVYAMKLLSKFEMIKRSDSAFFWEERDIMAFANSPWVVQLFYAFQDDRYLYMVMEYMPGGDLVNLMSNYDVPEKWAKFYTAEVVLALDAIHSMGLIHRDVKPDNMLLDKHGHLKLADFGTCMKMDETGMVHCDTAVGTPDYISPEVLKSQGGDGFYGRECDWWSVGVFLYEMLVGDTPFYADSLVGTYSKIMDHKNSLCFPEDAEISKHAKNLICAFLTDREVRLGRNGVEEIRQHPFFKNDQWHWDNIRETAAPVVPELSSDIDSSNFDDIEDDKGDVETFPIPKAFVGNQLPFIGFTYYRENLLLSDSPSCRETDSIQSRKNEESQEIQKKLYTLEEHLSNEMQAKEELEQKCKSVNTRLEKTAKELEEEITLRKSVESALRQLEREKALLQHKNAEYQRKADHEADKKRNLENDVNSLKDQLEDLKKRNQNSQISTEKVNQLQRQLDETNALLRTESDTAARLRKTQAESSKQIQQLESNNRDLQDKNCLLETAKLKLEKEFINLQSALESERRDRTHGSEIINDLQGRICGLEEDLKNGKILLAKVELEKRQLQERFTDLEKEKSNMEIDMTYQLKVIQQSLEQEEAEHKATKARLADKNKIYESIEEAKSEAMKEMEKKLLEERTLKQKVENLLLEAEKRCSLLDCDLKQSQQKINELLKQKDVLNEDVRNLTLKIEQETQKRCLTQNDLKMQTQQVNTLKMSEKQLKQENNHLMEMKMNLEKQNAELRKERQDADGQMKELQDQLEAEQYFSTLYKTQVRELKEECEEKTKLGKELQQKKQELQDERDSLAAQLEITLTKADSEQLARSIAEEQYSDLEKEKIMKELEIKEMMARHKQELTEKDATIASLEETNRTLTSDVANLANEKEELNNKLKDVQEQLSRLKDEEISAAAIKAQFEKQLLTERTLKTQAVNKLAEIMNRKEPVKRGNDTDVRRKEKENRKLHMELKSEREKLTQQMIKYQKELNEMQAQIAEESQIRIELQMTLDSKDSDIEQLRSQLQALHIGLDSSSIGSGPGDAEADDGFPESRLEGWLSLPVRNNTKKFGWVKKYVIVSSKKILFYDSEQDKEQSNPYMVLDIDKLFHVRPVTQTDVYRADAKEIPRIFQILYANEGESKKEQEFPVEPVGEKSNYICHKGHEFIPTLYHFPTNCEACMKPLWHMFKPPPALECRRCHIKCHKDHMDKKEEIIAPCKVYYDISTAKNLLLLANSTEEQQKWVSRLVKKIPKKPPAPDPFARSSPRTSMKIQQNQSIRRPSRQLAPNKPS

Compound | IC50 [1] [µM] | Realative Inhibitory Activity AuroraA [1] | IC50 (Purified rat CaMKII [2]) [µM] | Realative Inhibitory Activity CaMKII (Purified rat CaMKII [3]) | IC50 (Purified rat PKC) [µM] | IC50 [4] [µM] | Realative Inhibitory Activity PKA [4] | Realative Inhibitory Activity ROCKII (ROCKII (Rho-kinase)) | IC50 (ROCKII (Rho-kinase)) [µM]
2-(S)-1-(4-fluoroisoquinoline-5-sulfonyl)-4-glycyl-2-methylhomopiperazine dihydrochloride [Example 1] | 84.5 | 2817 | 22.9 | 763 | > 100 | > 100 | >3000 | 1 | 0.0321
CNCC(=O)N1CCCN(S(=O)(=O)c2cccc3cncc(F)c23)[C@@H](C)C1.Cl.Cl [Example 2, 2-(S)-1-(4-fluoroisoquinoline-5-sulfonyl)-2-methyl-4-(N-methylglycyl)homopiperazine dihydrochloride] | 92.2 | >3000 | 26.7 | 890 | > 100 | > 100 | >3000 | 1 | 0.029
